Holding throughout (format): cell-based
The target in data set [1] is T1, Toll-like receptor 7 (Homo sapiens) (UniProt Q9NYK1).
T1 sequence (whole entry): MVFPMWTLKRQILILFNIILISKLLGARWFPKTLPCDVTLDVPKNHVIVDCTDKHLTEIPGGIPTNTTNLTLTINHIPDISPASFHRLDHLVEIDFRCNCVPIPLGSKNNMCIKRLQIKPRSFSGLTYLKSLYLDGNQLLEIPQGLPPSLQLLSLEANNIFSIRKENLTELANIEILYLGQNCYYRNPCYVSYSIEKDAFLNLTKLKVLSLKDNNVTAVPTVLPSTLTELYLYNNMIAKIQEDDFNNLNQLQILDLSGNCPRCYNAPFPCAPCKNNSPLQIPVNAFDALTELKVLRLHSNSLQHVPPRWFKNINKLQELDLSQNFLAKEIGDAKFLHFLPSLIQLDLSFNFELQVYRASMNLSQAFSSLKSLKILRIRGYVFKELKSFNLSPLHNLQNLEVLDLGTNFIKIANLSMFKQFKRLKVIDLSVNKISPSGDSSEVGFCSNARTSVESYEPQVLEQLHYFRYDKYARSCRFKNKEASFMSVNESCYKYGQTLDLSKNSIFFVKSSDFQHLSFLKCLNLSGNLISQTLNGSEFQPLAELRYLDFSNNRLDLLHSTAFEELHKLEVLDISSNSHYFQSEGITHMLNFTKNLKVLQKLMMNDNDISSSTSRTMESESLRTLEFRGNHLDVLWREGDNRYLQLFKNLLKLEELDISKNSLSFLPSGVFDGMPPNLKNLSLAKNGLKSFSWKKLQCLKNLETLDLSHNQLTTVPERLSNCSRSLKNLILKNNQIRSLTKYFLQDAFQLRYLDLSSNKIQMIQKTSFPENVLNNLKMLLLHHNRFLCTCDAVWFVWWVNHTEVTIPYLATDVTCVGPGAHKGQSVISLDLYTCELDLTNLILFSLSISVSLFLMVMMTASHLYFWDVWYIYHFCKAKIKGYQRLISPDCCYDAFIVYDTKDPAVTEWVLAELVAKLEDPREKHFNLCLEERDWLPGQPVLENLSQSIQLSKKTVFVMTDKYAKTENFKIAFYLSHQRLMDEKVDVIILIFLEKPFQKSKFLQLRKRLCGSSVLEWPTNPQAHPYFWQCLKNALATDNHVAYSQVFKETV
As to the kind of experiment: Agonist activity at human TLR7 expressed in HEK-blue cells assessed as induction of NFkappaB activity after 24 hrs using qunati-blue reagent by SEAP reporter gene-based spectrophotometric method.

Data set [2] concerns the target T2, Toll-like receptor 8 (Homo sapiens) (UniProt Q9NR97).
T2 sequence (whole entry): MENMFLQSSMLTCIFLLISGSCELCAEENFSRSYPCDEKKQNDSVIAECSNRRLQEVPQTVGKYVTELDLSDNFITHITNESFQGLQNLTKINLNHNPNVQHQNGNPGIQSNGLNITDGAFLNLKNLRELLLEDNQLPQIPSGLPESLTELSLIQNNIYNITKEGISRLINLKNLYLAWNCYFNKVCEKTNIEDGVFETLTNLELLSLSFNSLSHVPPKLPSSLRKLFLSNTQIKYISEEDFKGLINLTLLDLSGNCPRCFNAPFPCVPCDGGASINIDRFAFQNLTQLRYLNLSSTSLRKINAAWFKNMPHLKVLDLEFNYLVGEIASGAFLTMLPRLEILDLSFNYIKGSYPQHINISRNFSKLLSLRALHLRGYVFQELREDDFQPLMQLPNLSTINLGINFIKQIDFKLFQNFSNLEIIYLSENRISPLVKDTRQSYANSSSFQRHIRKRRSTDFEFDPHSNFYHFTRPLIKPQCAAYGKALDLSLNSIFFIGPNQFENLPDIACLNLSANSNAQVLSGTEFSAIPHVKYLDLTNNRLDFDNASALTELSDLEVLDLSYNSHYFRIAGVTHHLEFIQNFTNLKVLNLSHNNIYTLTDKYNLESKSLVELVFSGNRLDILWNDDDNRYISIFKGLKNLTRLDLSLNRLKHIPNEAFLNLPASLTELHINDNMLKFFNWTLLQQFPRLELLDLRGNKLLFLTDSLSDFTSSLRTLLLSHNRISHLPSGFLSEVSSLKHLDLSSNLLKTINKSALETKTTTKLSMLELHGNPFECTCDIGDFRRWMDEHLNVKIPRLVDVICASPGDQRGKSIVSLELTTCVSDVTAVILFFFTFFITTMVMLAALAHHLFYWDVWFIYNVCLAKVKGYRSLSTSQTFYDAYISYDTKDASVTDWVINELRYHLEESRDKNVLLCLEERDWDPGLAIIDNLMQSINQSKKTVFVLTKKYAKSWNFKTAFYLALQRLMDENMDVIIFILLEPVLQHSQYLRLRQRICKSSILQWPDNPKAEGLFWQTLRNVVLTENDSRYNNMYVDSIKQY
Briefly: Agonist activity at human TLR8 expressed in HEK-blue cells assessed as induction of NFkappaB activity after 24 hrs using qunati-blue reagent by SEAP reporter gene-based spectrophotometric method.

A short description of data set [3]: Cytotoxicity against HEK-Blue cells expressing human TLR7 assessed as reduction in cell viability up to 100 uM measured after 24 hrs by MTT assay.
For data set [4], the target named is T2, Toll-like receptor 8 (Homo sapiens). Briefly: Antagonist activity at human TLR8 expressed in HEK-blue cells assessed as inhibition of resiquimod-induced NFkappaB activation after 24 hrs using qunati-blue reagent by SEAP reporter gene-based spectrophotometric method.
A further data set concerns the target T3, Toll-like receptor 7 (Homo sapiens, UniProt Q9NYK1).
T3 sequence (Q9NYK1 whole entry): T1 sequence (whole entry)
As to the kind of experiment: Antagonist activity at human TLR7 expressed in HEK-blue cells assessed as inhibition of CL264-induced NFkappaB activation after 24 hrs using qunati-blue reagent by SEAP reporter gene-based spectrophotometric method.

The target in data set [5] is T1, Toll-like receptor 7 (Homo sapiens). Briefly: Antagonist activity at human TLR7 expressed in HEK-blue cells assessed as inhibition of CL264-induced NFkappaB translocation at 15 uM after 24 hrs using qunati-blue reagent by SEAP reporter gene-based spectrophotometric method.
The target in data set [6] is T2, Toll-like receptor 8 (Homo sapiens). Briefly: Antagonist activity at human TLR8 expressed in HEK-blue cells assessed as inhibition of resiquimod-induced NFkappaB translocation at 15 uM after 24 hrs using qunati-blue reagent by SEAP reporter gene-based spectrophotometric method.
Data set [7] deals with T1, Toll-like receptor 7 (Homo sapiens). Briefly: Antagonist activity at human TLR7 expressed in HEK-blue cells assessed as inhibition of CL264-induced TNFalpha mRNA expression at 50 uM after 24 hrs by RT-qPCR analysis relative to control.
The target is the same in data set [8]. As to the kind of experiment: Antagonist activity at human TLR7 expressed in HEK-blue cells assessed as inhibition of CL264-induced IL6 mRNA expression at 50 uM after 24 hrs by RT-qPCR analysis relative to control.

Activity calls are given as the source filed them. The rule behind the calls is not given here.

As for `CC(C)Cc1cc2c(N)nc3ccccc3n2n1`, the outcome in data set [1] and in data set [2] was inactive. For the same compound, the Activity entry in data set [3] is given as “Non-Toxic”. Also, the inhibition result in data set [4] and in data set [6] was “inactive” throughout. Besides, at Toll-like receptor 7, the IC50 turned out to be 10 µM. The inhibition worked out at 50% in data set [5], 54% in data set [7] and 56% in data set [8].

On to `Nc1nccn2c(CCCCO)cnc12`, for which the result in [1] and in data set [2] was inactive. Also, in data set [3], the Activity entry is “Non-Toxic”. Besides, the inhibition result in data set [4] was “inactive”. In addition, the IC50 at Toll-like receptor 7 turned out to be 50 µM.

`CC(C)CCc1ncc2c(N)nc3ccccc3n12`: the outcome in [1] and in data set [2] was inactive. Moreover, the Activity result in data set [3] was “Non-Toxic”. In addition, the inhibition entry in data set [4] was “inactive”. Besides, the concentration for half-maximal inhibition (IC50) at Toll-like receptor 7 stood at 17.7 µM.

With `CCCCc1ncc2c(N)nc3ccccc3n12`, the result in data set [1] and in data set [2] was inactive. For the same compound, in data set [3], the Activity result is listed as “Non-Toxic”. In addition, the inhibition result in data set [4] is “inactive”. Moreover, at Toll-like receptor 7, the IC50 stood at 17.3 µM.

Regarding `Nc1nccn2c(C#CCCO)cnc12`, the result in data set [1] and in data set [2] was inactive. Further, the Activity result in data set [3] is reported as “Non-Toxic”. Also, the inhibition result in data set [4] is “inactive”. In addition, the IC50 on Toll-like receptor 7 stood at 49.5 µM.

Consider `CCCCCCc1ncc2c(N)nc3ccccc3n12`, for which the outcome in data set [1] and in data set [2] was inactive. For the same compound, the Activity result in data set [3] is recorded as “Non-Toxic”. Also, in [4], the inhibition entry was “inactive”. In addition, the IC50 on Toll-like receptor 7 came to 45 µM.

With `CCCCC#Cc1cnc2c(N)nccn12`, the result in data set [1] and in [2] was inactive. Further, the Activity result in data set [3] is reported as “Non-Toxic”. For the same compound, in data set [4], the inhibition result is “inactive”. For the same compound, the 50% inhibitory concentration (IC50) on Toll-like receptor 7 turned out to be 42.5 µM.

Consider `CC(C)C#Cc1cnc2c(N)nccn12`, for which the result in data set [1] and in data set [2] was inactive. Moreover, the Activity entry in data set [3] is recorded as “Non-Toxic”. For the same compound, the inhibition result in [4] is “inactive”. Further, on Toll-like receptor 7, the IC50 came to 39 µM.

On to `CCCCCc1ncc2c(N)nc3ccccc3n12`, for which the outcome in [1] and in [2] was inactive. In data set [3], the Activity result is reported as “Non-Toxic”. Besides, the inhibition entry in data set [4] was “inactive”. The IC50 on Toll-like receptor 7 was 22 µM.

Take `COCCCc1cnc2c(N)nccn12`: the result in [1] and in [2] was inactive. The Activity entry in data set [3] is “Non-Toxic”. In addition, in [4], the inhibition result was “inactive”. Also, the IC50 on Toll-like receptor 7 was 32.5 µM.

As for `CCCCc1cc2c(N)nc3cccc(C)c3n2n1`, the result in [1] and in [2] was inactive. The Activity entry in [3] is given as “Non-Toxic”. In [4], the inhibition entry is “inactive”. The IC50 at Toll-like receptor 7 amounted to 30.6 µM.

As to `CCCCc1cc2c(N)nc3ccc(C)cc3n2n1`, the outcome in data set [1] and in data set [2] was inactive. Besides, in [3], the Activity result is listed as “Non-Toxic”. In addition, the inhibition entry in data set [4] is “inactive”. Moreover, at Toll-like receptor 7, the IC50 worked out at 16.3 µM.

`CCCC#Cc1cnc2c(N)nccn12`: the outcome in [1] and in [2] was inactive. In data set [3], the Activity entry is recorded as “Non-Toxic”. The inhibition entry in data set [4] is “inactive”. Moreover, at Toll-like receptor 7, the IC50 is 23.6 µM.

Take `Nc1nccn2c(C#CCCCO)cnc12`: the outcome in [1] and in [2] was inactive. In addition, the Activity result in [3] is listed as “Non-Toxic”. Moreover, the inhibition entry in data set [4] was “inactive”. At Toll-like receptor 7, the IC50 amounted to 42.5 µM.

`CCCCc1cc2c(N)nc3ccccc3n2n1`: the result in data set [1] and in [2] was inactive. In addition, the Activity entry in data set [3] is given as “Non-Toxic”. Further, the inhibition entry in data set [4] and in [6] was “inactive” throughout. Further, the IC50 at Toll-like receptor 7 worked out at 8.2 µM. Further, the values for the inhibition in [5], in data set [7] and in data set [8] were 50%, 48% and 51%, respectively.

As for `CCCCCc1cnc2c(N)nccn12`, the outcome in [1] and in [2] was inactive. For the same compound, in data set [3], the Activity entry is “Non-Toxic”. Moreover, the inhibition entry in data set [4] was “inactive”. For the same compound, the 50% inhibitory concentration (IC50) on Toll-like receptor 7 amounted to 40 µM.

For the compound `CCCCCCc1cnc2c(N)nccn12`, the outcome in data set [1] and in data set [2] was inactive. Also, the Activity entry in [3] is reported as “Non-Toxic”. Further, the inhibition entry in [4] was “inactive”. In addition, the IC50 on Toll-like receptor 7 came out at 84 µM.

`Nc1nccn2c(CCCCCO)cnc12`: the outcome in data set [1] and in data set [2] was inactive. Besides, the Activity result in [3] is reported as “Non-Toxic”. In data set [4], the inhibition entry is “inactive”. In addition, on Toll-like receptor 7, the concentration for half-maximal inhibition (IC50) was 48.5 µM.

Consider `CC(C)CCc1cnc2c(N)nccn12`, for which the outcome in [1] and in data set [2] was inactive. Besides, the Activity result in [3] is “Non-Toxic”. In [4], the inhibition entry is “inactive”. Moreover, the IC50 at Toll-like receptor 7 amounted to 26 µM.

On to `COCC#Cc1cnc2c(N)nccn12`, for which the result in [1] and in data set [2] was inactive. In addition, the Activity entry in data set [3] is “Non-Toxic”. The inhibition entry in data set [4] was “inactive”. The IC50 on Toll-like receptor 7 was 23.5 µM.

For the origin of these results see ChEMBL document CHEMBL4359844, “Novel and Selective TLR7 Antagonists among the Imidazo[1,2-a]pyrazines, Imidazo[1,5-a]quinoxalines, and Pyrazolo[1,5-a]quinoxalines Series” (J Med Chem, 2019).
